Laboratory results reported in patent publication US11752126B2, “Stable cannabinoid compositions” (Sino-German M&A Service GmbH, priority 2017, dated 2023).

Assay: THC content over time in different stabilizing systems (FIG. 1)
Assay type: physicochemical
Description: In the lower data set, the initial concentration of THC is reduced to 91% at day 93 with respect to the initial concentration of THC at day 0.

CCCCCc1cc(O)c2c(c1)OC(C)(C)[C@@H]1CCC(C)=C[C@@H]21 [THC, tetrahydrocannabinol]
evolution of the relative concentration of tetrahydrocannabinol (THC) (system including 1 weight percent tocopherol, over time): nearly flat over time
relative concentration of tetrahydrocannabinol (THC) (system including no tocopherol, day 93, with respect to the initial concentration of THC at day 0): 91%
